PMC6466617 (The AAPS journal, 2019)

Target: T1, monocarboxylate transporter 1 (MCT1) (Mus musculus, UniProt P53986)
T1 sequence (P53986 1-493): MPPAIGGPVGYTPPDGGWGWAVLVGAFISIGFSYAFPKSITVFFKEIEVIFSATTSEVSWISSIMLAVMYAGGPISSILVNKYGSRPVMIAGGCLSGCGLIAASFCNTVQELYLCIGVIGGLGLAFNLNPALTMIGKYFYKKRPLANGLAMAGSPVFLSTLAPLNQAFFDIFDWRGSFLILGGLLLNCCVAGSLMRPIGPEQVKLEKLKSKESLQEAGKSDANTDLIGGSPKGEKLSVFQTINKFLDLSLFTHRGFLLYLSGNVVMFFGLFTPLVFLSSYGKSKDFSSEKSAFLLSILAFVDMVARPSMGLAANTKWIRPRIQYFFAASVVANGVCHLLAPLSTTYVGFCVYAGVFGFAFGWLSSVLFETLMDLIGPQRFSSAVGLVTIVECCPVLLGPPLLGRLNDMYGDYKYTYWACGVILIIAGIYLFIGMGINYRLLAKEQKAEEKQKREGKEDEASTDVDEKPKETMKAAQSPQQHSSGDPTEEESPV
Assay: inhibition of [3H]-L-lactate uptake in 4T1 cells at […], pH […], with washout
Format: cell-based
Conditions: 4T1, read-out: % inhibition at 200 nM

SMILES: Cc1[nH]nc(C(F)(F)F)c1Cc1sc2c(c1C(=O)N1C[C@](C)(O)CO1)c(=O)n(C)c(=O)n2C(C)C [AZD3965]
- inhibition at 0.2 µM: 83.5%
